Test results: PubChem BioAssay (NCI)
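A five-concentration, 48-hour dose response in 96-well plates underlies each endpoint, interpolated linearly between surrounding concentrations. At the TGI there is no net growth.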

How the values were obtained:
Test in all cases: growth of human tumour cells (NCI), 48 h
HL-60(TB) leukemia = test system: HL-60(TB) leukemia
DLD-1 colon = test system: DLD-1 colon
MALME-3M melanoma = test system: MALME-3M melanoma
HT29 colon = test system: HT29 colon
UO-31 renal = test system: UO-31 renal
SF-295 CNS = test system: SF-295 CNS
SK-OV-3 ovarian = test system: SK-OV-3 ovarian
TK-10 renal = test system: TK-10 renal
K-562 leukemia = test system: K-562 leukemia
OVCAR-3 ovarian = test system: OVCAR-3 ovarian
OVCAR-5 ovarian = test system: OVCAR-5 ovarian
SF-539 CNS = test system: SF-539 CNS
NCI-H226 lung = test system: NCI-H226 lung
NCI-H522 lung = test system: NCI-H522 lung
MOLT-4 leukemia = test system: MOLT-4 leukemia
HCT-116 colon = test system: HCT-116 colon
SNB-75 CNS = test system: SNB-75 CNS
CCRF-CEM leukemia = test system: CCRF-CEM leukemia
A549 NSCLC = test system: A549 NSCLC
U251 CNS = test system: U251 CNS
SNB-19 CNS = test system: SNB-19 CNS
LXFL 529 NSCLC = test system: LXFL 529 NSCLC
M19-MEL melanoma = test system: M19-MEL melanoma
UACC-62 melanoma = test system: UACC-62 melanoma
NCI-H460 lung = test system: NCI-H460 lung
NCI-H23 lung = test system: NCI-H23 lung
COLO 205 colon = test system: COLO 205 colon
SK-MEL-2 melanoma = test system: SK-MEL-2 melanoma
SK-MEL-5 melanoma = test system: SK-MEL-5 melanoma
RPMI-8226 leukemia = test system: RPMI-8226 leukemia
SF-268 CNS = test system: SF-268 CNS
IGROV1 ovarian = test system: IGROV1 ovarian
HOP-62 NSCLC = test system: HOP-62 NSCLC
SK-MEL-28 melanoma = test system: SK-MEL-28 melanoma
UACC-257 melanoma = test system: UACC-257 melanoma
SW-620 colon = test system: SW-620 colon
HOP-92 NSCLC = test system: HOP-92 NSCLC
HOP-18 NSCLC = test system: HOP-18 NSCLC
KM12 colon = test system: KM12 colon
M14 melanoma = test system: M14 melanoma
ACHN renal = test system: ACHN renal
KM20L2 colon = test system: KM20L2 colon
HCT-15 colon = test system: HCT-15 colon
DMS 114 small cell lung = test system: DMS 114 small cell lung
XF 498 CNS = test system: XF 498 CNS
SNB-78 CNS = test system: SNB-78 CNS
LOX IMVI melanoma = test system: LOX IMVI melanoma
RXF 393 renal = test system: RXF 393 renal
OVCAR-8 ovarian = test system: OVCAR-8 ovarian
EKVX NSCLC = test system: EKVX NSCLC
SR leukemia = test system: SR leukemia
CAKI-1 renal = test system: CAKI-1 renal
786-0 renal = test system: 786-0 renal
DMS 273 small cell lung = test system: DMS 273 small cell lung
OVCAR-4 ovarian = test system: OVCAR-4 ovarian

Measured: TGI

COc1cc(C2C(Cl)C(=O)N2NC(=O)c2ccc(NC(C)=O)cc2)cc(OC)c1OC (stereo not given)
> 100 µM: HL-60(TB) leukemia | DLD-1 colon | MALME-3M melanoma | HT29 colon | UO-31 renal | SF-295 CNS | SK-OV-3 ovarian | TK-10 renal | K-562 leukemia | OVCAR-3 ovarian | OVCAR-5 ovarian | SF-539 CNS | NCI-H226 lung | NCI-H522 lung | MOLT-4 leukemia | HCT-116 colon | SNB-75 CNS | CCRF-CEM leukemia | A549 NSCLC | U251 CNS | SNB-19 CNS | LXFL 529 NSCLC | M19-MEL melanoma | UACC-62 melanoma | NCI-H460 lung | NCI-H23 lung | COLO 205 colon | SK-MEL-2 melanoma | SK-MEL-5 melanoma | RPMI-8226 leukemia | SF-268 CNS | IGROV1 ovarian | HOP-62 NSCLC | SK-MEL-28 melanoma | UACC-257 melanoma | SW-620 colon | HOP-92 NSCLC | HOP-18 NSCLC | KM12 colon

Cc1ccn2c(c1)nc1nc3ccccc3nc12
> 100 µM: M14 melanoma | HL-60(TB) leukemia | DLD-1 colon | ACHN renal | HT29 colon | UO-31 renal | SF-295 CNS | SK-OV-3 ovarian | KM20L2 colon | TK-10 renal | HCT-15 colon | K-562 leukemia | OVCAR-3 ovarian | OVCAR-5 ovarian | SF-539 CNS | NCI-H226 lung | NCI-H522 lung | DMS 114 small cell lung | SNB-75 CNS | CCRF-CEM leukemia | A549 NSCLC | XF 498 CNS | U251 CNS | SNB-19 CNS | LXFL 529 NSCLC | M19-MEL melanoma | UACC-62 melanoma | NCI-H460 lung | NCI-H23 lung | COLO 205 colon | SK-MEL-2 melanoma | SNB-78 CNS | LOX IMVI melanoma | RXF 393 renal | SK-MEL-5 melanoma | RPMI-8226 leukemia | SF-268 CNS | IGROV1 ovarian | OVCAR-8 ovarian | HOP-62 NSCLC | SK-MEL-28 melanoma | UACC-257 melanoma | SW-620 colon | EKVX NSCLC | SR leukemia | HOP-92 NSCLC | CAKI-1 renal | 786-0 renal | DMS 273 small cell lung | OVCAR-4 ovarian | KM12 colon
